This is an account of results in US7652010B2 (priority 2004, dated 2010).

With `Nc1ccc(C#Cc2ccc(OC3CN4CCC3CC4)nn2)cc1` (racemic) [Compound C8, (±)-4-[6-(1-Aza-bicyclo[2.2.2]oct-3-yloxy)-pyridazin-3-ylethynyl]-phenylamine free base], the melting point (usually the temperature of the solid-liquid transition) fell in the range of 212 to 220 °C.

The compound `Nc1cccc(C#Cc2ccc(OC3CN4CCC3CC4)nn2)c1` (racemic) [Compound C7, (±)-3-[6-(1-Aza-bicyclo[2.2.2]oct-3-yloxy)-pyridazin-3-ylethynyl]-phenylamine free base] came in with a melting point of 152.4 to 158.1 °C. In the case of `C(#Cc1ccc(OC2CN3CCC2CC3)cc1)c1ccccc1.O=C(O)/C=C/C(=O)O` (racemic), the melting point lay within 126.9 to 127.3 °C. In the case of `CC(=O)Nc1ccc(C#Cc2ccc(OC3CN4CCC3CC4)nn2)cc1` (racemic) [Compound C6, (±)-N-{4-[6-(1-Aza-bicyclo[2.2.2]oct-3-yloxy)-pyridazin-3-ylethynyl]-phenyl}-acetamide free base], the melting point was 169.5 to 175.4 °C. Regarding `C(#Cc1ccc(OC2CN3CCC2CC3)nn1)c1ccsc1.O=C(O)/C=C/C(=O)O` (racemic) [Compound C10, (±)-3-(6-Thiophen-3-ylethynyl-pyridazin-3-yloxy)-1-aza-bicyclo[2.2.2]octane fumaric acid salt], the melting point was 133.9 to 141.6 °C.
